Measurements as given in paper PMC9061999, “Application of the Adverse Outcome Pathway Concept to In Vitro Nephrotoxicity Assessment: Kidney Injury due to Receptor-Mediated Endocytosis and Lysosomal Overload as a Case Study” (Frontiers in Toxicology, 2022).

Tested on: NRK-52E cells
Assay: High content imaging of lysosomes and nuclei (LysoView 633 / SYTO 16)
Assay type: cell-based, rat
Protocol: For high content imaging, NRK-52E and RPTEC/TERT1 cells were cultivated in µ-clear half well area microtiter plates (Greiner) according to the protocol described for the cytotoxicity assay with slight modification. Briefly, NRK-52E cells were seeded at 5,000 cells in 100 µL growth medium per well and were incubated under standard growth conditions for 48 h prior to treatment. RPTEC/TERT1 cells were seeded at 15,000 cells in 100 µL growth medium per well and incubated under standard growth conditions for 7–8 days, until cells reached confluence and started to differentiate. This was indicated by the formation of three-dimensional structures referred to as domes which were identified by regular microscopic inspection of the plates. Only differentiated cell cultures with detectable domes were assayed. Cells of both cell lines were treated with serially diluted Polymyxin B sulfate (concentration range 7.8 to 2,000 µM) for 1, 2, 4, 6, or up to 24 h. The assay was carried out on three biological replicates defined as three different non-consecutive passages of the cell culture. Each biological replicate at each treatment concentration was assayed in triplicate wells per plate.
Following treatment, cells were stained with two different combinations of fluorescent dyes: NRK-52E cells with 50 pg/μL LysoView™ 633 (Biotium) and 1 µM SYTO 16 (Thermo Scientific), respectively, for lysosomes and nuclei; RPTEC/TERT1 cells with 10 nM LysoTracker™ Red (Thermo Scientific) and 10 ng/μL Hoechst 33342 (Merck-Sigma Aldrich), respectively, for lysosomes and nuclei. For each cell line a staining solution was obtained by mixing the lysosomes and nuclei dyes in cell culture medium at the concentrations indicated above. […]
Images were acquired with a fully automated fluorescence confocal Opera™ QEHS system (PerkinElmer, United Kingdom) using a ×40 air UPlanApo objective (Olympus) with 0.85 numerical aperture. […]
The images were analyzed by custom-made image analysis scripts either with the imaging analysis software Acapella (version 2.8 PerkinElmer) or Columbus (version 2.4.0 PerkinElmer). […]

For Polymyxin B, the “Treatment time at which changes in nuclei area and nuclei intensity appeared” value (NRK-52E, 250 µM) was 20 h, the “Treatment time at which lysosomal effects with nuclear changes first appeared” value (NRK-52E, 500 µM) was 12 h and the “Treatment time from which lysosomal effects were accompanied by nuclear changes” value (NRK-52E, 1,000 and 2000 µM) was 8 h.
